Data: patent US8318223B2, “Method for producing modified milk” (Ajinomoto Co., Inc., priority 2008, dated 2012)
Read-outs that look alike come from different tables or passages of the source.

Biological target: T1, PG (Chryseobacterium proteolyticum, UniProt Q9AQQ8)
T1 construct: made in house
T1 sequence (Q9AQQ8 136-320): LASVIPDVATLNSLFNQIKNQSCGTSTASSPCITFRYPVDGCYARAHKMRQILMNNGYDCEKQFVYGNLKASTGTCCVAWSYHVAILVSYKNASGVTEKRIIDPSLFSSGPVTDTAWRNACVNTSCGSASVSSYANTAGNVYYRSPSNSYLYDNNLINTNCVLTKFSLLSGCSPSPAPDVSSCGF
Assay type: biochemical
Method: Calcium chelating materials were added to LTLT sterilized milk (66° C., 30 minutes: Takanashi low temperature sterilized milk) properly. The reactivity of PG with each milk sample was measured as follows. To each milk sample was added 0.4 U/ml (corresponding to about 12 u per 1 g of milk protein) of PG (a purified product described in Experimental Example 1) and incubated at 50° C. for 60 minutes. The enzyme reaction was ceased by adding 12% TCA the amount of which is the same as the reacting solution and centrifuged (12,000 rpm, 5° C., 5 minutes) to measure the amount of ammonium in the supernatant using an ammonium quantitative measurement kit, F-kit (Roche).
Alkaline materials were added to LTLT sterilized milk (66° C., 30 minutes: Takanashi low temperature sterilized milk) properly so as to adjust the pH 7 to 8.4. The reactivity of PG with each milk sample was measured as in Example 1.
Glutathione or cysteine (Nacalai Tesque, Inc.) as a thiol-type reducing agent was added to LTLT sterilized milk (66° C., 30 minutes: Takanashi low temperature sterilized milk) properly. The reactivity of PG to each milk was measured as in Example 1. […] By the same manner, the reactivity of PG to milk was measured by adding glutathione yeast extract (AROMILD UG8, Kohjin Co., Ltd.) to milk at different concentrations.

[1] = alkaline additive 0.30% in LTLT milk, control (pH 6.67) 13.6
[2] = additive 0.4% in LTLT milk, PG 0.4 U/ml, 50° C., 60 minutes, control 22.1
[3] = additive 0.5% in LTLT milk, PG 0.4 U/ml, 50° C., 60 minutes, control 22.1
[4] = alkaline additive 0.20% in LTLT milk, control (pH 6.67) 13.6
[5] = alkaline additive […] in LTLT milk, control (pH 6.67) 13.6
[6] = alkaline additive 0.25% in LTLT milk, control (pH 6.67) 13.6

Q: Which “PG reactivity (%)” value (alkaline additive 0.13% in LTLT milk, control (pH 6.67) 13.6) does the source give for `O=C([O-])[O-].[K+].[K+]` [Potassium carbonate] here?
A: 62.5%

Q: How did the “PG reactivity (%)” value [1] turn out when `O=C([O-])O.[Na+]` [Sodium hydrogen carbonate] was run?
A: 58.1%

Q: What about the “PG reactivity (%)” value (alkaline additive 1.00% in LTLT milk, control (pH 6.67) 13.6) of the same compound?
A: 57.8%

Q: For `O=C([O-])CC(O)(CC(=O)[O-])C(=O)[O-].[Na+].[Na+].[Na+]` [Trisodium citrate], which “PG reactivity (%)” value (additive 0.2% in LTLT milk, PG 0.4 U/ml, 50° C., 60 minutes, control 22.1) is on record?
A: 40.5%

Q: And the “PG reactivity (%)” value [2]?
A: 47.3%

Q: What about the “PG reactivity (%)” value [3] of the same compound?
A: 42.8%

Q: Which “PG reactivity (%)” value (additive 20 mM in LTLT milk, PG 0.4 U/ml, 50° C., 60 minutes, control 22.1) does the source give for `O=C([O-])CN(CCN(CC(=O)[O-])CC(=O)[O-])CC(=O)[O-].[Na+].[Na+].[Na+].[Na+]` [EDTA, tetrasodium ethylenediaminetetraacetate] here?
A: 55.9%

Q: What does the source list for sodium γ-polyglutamate [γ-PGA]?
A: PG reactivity (%) [2]: 49.8%; PG reactivity (%) [3]: 58.1%; PG reactivity (%) (additive 0.75% in LTLT milk, PG 0.4 U/ml, 50° C., 60 minutes, control 22.1): 79.2%; PG reactivity (%) (additive 1% in LTLT milk, PG 0.4 U/ml, 50° C., 60 minutes, control 22.1): 96.1%

Q: What does the source list for `O=C([O-])[O-].[Na+].[Na+]` [Sodium carbonate]?
A: PG reactivity (%) (alkaline additive 0.10% in LTLT milk, control (pH 6.67) 13.6): 61.7%; PG reactivity (%) [4]: 65%; PG reactivity (%) [5]: 72.7%

Q: Which “PG reactivity (%)” value [4] does the source give for `N=C(N)NCCC[C@H](N)C(=O)O` [Arg (amino acid), arginine] here?
A: 54.1%

Q: And the “PG reactivity (%)” value [6]?
A: 67%

Q: What about the “PG reactivity (%)” value [1] of the same compound?
A: 76.2%

Q: And the “PG reactivity (%)” value (alkaline additive 0.40% in LTLT milk, control (pH 6.67) 13.6)?
A: 75%

Q: Which results are given for `O=P([O-])([O-])[O-].[Na+].[Na+].[Na+]` [Trisodium phosphate]?
A: PG reactivity (%) [4]: 65.8%; PG reactivity (%) [6]: 72%; PG reactivity (%) [5]: 54.9%
